Results reported in PMC6114103, “17-DMAG inhibits the multiplication of several Babesia species and Theileria equi on in vitro cultures, and Babesia microti in mice” (International Journal for Parasitology: Drugs and Drug …, 2018).

What was measured:
[1] = introduction, background statement; ref Jilani et al., 2013; cited from earlier work
[2] = test system: B. bovis (Texas strain); test: in vitro multiplication inhibition assay (SYBR Green I fluorescence, 96 h), single drugs and two-drug combinations; assay type: cell-based, Babesia bovis; settings: B. bovis, 96 h, triplicate, mean ± SD; read-out: IC50 on in vitro culture of parasites
Experimental: (§1) Babesia parasite cultures were maintained using a microaerophilic stationary-phase culture system ([Levy and Ristic, 1980]; [Avarzed et al., 1997]; [Igarashi et al., 1998]). Briefly, bovine Babesia parasites were grown in bovine red blood cells (RBC) in the specific complete medium for each species. The medium for B. bovis (Texas strain) contained GIT medium supplemented with 10% bovine serum, while the medium for B. bigemina (Argentina strain) and B. divergens (Germany strain) was Medium 199 and RPMI 1640 medium, respectively, supplemented with 40% bovine serum ([Rizk et al., 2016]). B. caballi (USDA strain) was grown using equine RBC in GIT medium supplemented with 10% equine serum. T. equi (USDA strain) was grown in equine RBC in M199 medium supplemented with 40% equine serum and hypoxanthine (MP Biomedicals, USA) at a final concentration of 13.6 μg/ml. All of the media included 60 U/ml penicillin G, 60 μg/ml streptomycin, and 0.15 μg/ml amphotericin B (Sigma-Aldrich, USA). The cultures were incubated at 37 °C in a humidified chamber with an atmosphere of 5% CO2, 5% O2, and 90% N2.
(§2) The assays were conducted in accordance with the protocol described previously with modification ([Guswanto et al., 2014]). Briefly, the cultures of B. bovis, B. bigemina, B. divergens, B. caballi, and T. equi with a parasitemia of 8%, 3%, 10%, 4%, and 9%, respectively, were harvested and adjusted to 1% parasitemia with fresh RBC before the inhibition assay. The 60 inner wells of a 96-well plate were used in the assay, while the peripheral wells were filled with sterile distillate water to reduce evaporation during incubation. To each well in triplicate, 2.5 μl of infected RBC (5 μl for B. divergens, B. caballi, and T. equi) was added and mixed with a culture medium containing the drug to a total volume of 100 μl. The stock solution of 17-DMAG, DA, and AV was dissolved in a culture medium at various concentrations using two-fold dilution. A culture medium containing DMSO at a final concentration of 0.2% was added to the well with infected RBC as a positive control and to the well with uninfected RBC as a negative control. Furthermore, a drug combination assay was conducted in parallel with the single drug assay at the constant ratio in accordance with the Chou–Talalay method ([Chou, 2006]). In the same plate with a single drug inhibition assay, a two-drug combination (DA+17-DMAG, DA + AV, and 17-DMAG + AV) at concentrations of 0.25 x IC50, 0.5 x IC50, IC50, 2 x IC50, and 4 x IC50 was added to the well containing infected RBC in triplicate. The plate was incubated in a humidified incubator with 5% CO2, 5% O2, and 90% N2. After 96 h, 100 μl of a lysis buffer containing SYBR Green I was added to each well. The plate was wrapped with aluminum foil to avoid direct light exposure and incubated at room temperature. After incubation for 6 h, fluorescence values were measured using a fluorescence spectrophotometer (Fluoroskan Ascent, Thermo Fisher Scientific, USA) with the excitation and emission wavelength at 485 nm and 518 nm, respectively. The fluorescence data were subtracted from the negative control and used to calculate the IC50.
(§3) The IC50 of 17-DMAG, DA, and AV was calculated from the percentage of inhibition on the in vitro multiplication of all tested species using non-linear regression (curve fit), available in GraphPad Prism (GraphPad Software Inc., USA). Combination index (CI) values for the drug combination were calculated using CompuSyn software ([Chou, 2006]). Since the chemotherapy effect is preferable at the highest inhibition, the degree of synergism was determined as the weighted average of CI values using a formula ((1 x IC50) + (2 x IC75) + (3 x IC90) + (4 x IC95))/10 ([Chou, 2006]). The differences among groups regarding the parasitemia, hematology profiles, and body weight in the B. microti–infected mouse model were analyzed using Student's t-test, available in GraphPad Prism software.

[3] = test system: B. bigemina (Argentina strain); test: as above; assay type: cell-based, Babesia bigemina; settings: B. bigemina, 96 h, triplicate, mean ± SD; read-out: IC50 on in vitro culture of parasites
Experimental: as §1, §2, §3

[4] = test system: B. divergens (Germany strain); test: as above; assay type: cell-based, Babesia divergens; settings: B. divergens, 96 h, triplicate, mean ± SD; read-out: IC50 on in vitro culture of parasites
Experimental: as §1, §2, §3

[5] = test system: B. caballi (USDA strain); test: as above; assay type: cell-based, Babesia caballi; settings: B. caballi, 96 h, triplicate, mean ± SD; read-out: IC50 on in vitro culture of parasites
Experimental: as §1, §2, §3

[6] = test system: NIH/3T3 cells; test: cytotoxicity (drug-exposure viability) assay, CCK-8; assay type: cell-based, mouse
Experimental: (§4) Each medium was supplemented with 10% fetal bovine serum, 0.5% penicillin/streptomycin (Gibco, Life Technologies, USA), and an additional 1% glutamine. The medium was changed every 3–4 days and incubated until approximately 80% confluent. The cells were free from mycoplasma contamination after being checked by staining with DAPI (Sigma-Aldrich, USA). The detachment of cells from the culture flask was done using TrypLE™ Express (Gibco, Life Technologies, USA) after washing two times with Dulbecco's phosphate-buffered saline (DPBS). Subsequently, the counting of viable cells was carried out using a Neubauer improved C-Chip (NanoEntek Inc., Korea) after staining with 0.4% trypan blue solution. The drug-exposure viability assay was performed in accordance with the recommendation of the Cell Counting Kit-8 (CCK-8, Dojindo, Japan). Briefly, the assay was carried out using a 96-well plate at 37 °C in a humidified incubator with 5% CO2. One hundred microliters of cells at a density of 5 × 10^4 cells/ml was seeded per well and allowed to attach to the plate for 24 h. […] The exposure of drugs was carried out for 24 h, followed by the addition of 10 μl of CCK-8. The plate was further incubated for 3 h, and the absorbance was measured at 450 nm using a microplate reader.

[7] = test system: MDBK cells; test: as above; assay type: cell-based, bovine
Experimental: as §4

[8] = test system: B. microti (Munich strain); test: inhibition assay using a B. microti-infected mouse model; assay type: in vivo, BALB/c mice; settings: 17-DMAG 30, DA 25, AV 20 mg/kg BW; 17-DMAG + DA 15 + 15, 17-DMAG + AV 15 + 10, DA + AV 15 + 10 mg/kg BW; 5 consecutive days
Experimental: B. microti (Munich strain) was recovered from -80 °C stock in two 6-week female Balb/c mice (Clea, Japan). The parasitemia was monitored every 2 days. […] The inhibitory effect of 17-DMAG was also determined using a B. microti mouse model according to the previous protocol ([Goo et al., 2010]). Briefly, 35 female BALB/c mice aged 8 weeks received an intraperitoneal injection of 1 × 10^7 of B. microti-infected RBC and were divided into seven groups. Another group consisting of five mice was kept uninfected and untreated as a control. The multiplication of B. microti was observed from blood smears after staining with Giemsa using a light microscope. The drug treatment was initiated to all infected mice on day five, after the parasitemia reached approximately 1%, and continue to the total of five consecutive days. Group 1 was treated with 4% DMSO in saline water as a control intraperitoneally. […] The parasitemia was estimated from Giemsa-stained blood smears using microscopy in approximately 5000 RBC. Furthermore, the hematology profiles including RBC, hemoglobin, and hematocrit were measured from 10 μl of mouse blood using an automatic hematology analyzer (Celltac α MEK-6450, Nihon Kohden, Tokyo, Japan). The rate of parasitemia, hematology profiles, and mouse body weight was monitored for 60 days. The experiment was repeated once so each group contained 10 mice. […] Combination index (CI) values for the drug combination were calculated using CompuSyn software ([Chou, 2006]). […] The differences among groups regarding the parasitemia, hematology profiles, and body weight in the B. microti-infected mouse model were analyzed using Student's t-test, available in GraphPad Prism software. The difference was considered significant if P < 0.05.

[9] = at a concentration of 40 μM, separate assay

SMILES	solubility [1]	IC50 [2] [nM]	IC50 [3] [nM]	IC50 [4] [nM]	IC50 [5] [nM]	IC50 ([6]; NIH/3T3, 24 h exposure, CCK-8, read-out: IC50 on cell line NIH/3T3) [nM]	inhibition on NIH/3T3 cell viability [6, 9]	IC50 ([7]; MDBK, 24 h exposure, CCK-8, read-out: IC50 on cell line MDBK) [nM]	inhibition on MDBK cell viability [7, 9]	day p.i. on which parasite no longer detected in blood smears via microscopy (parasite clearance) [8] [day p.i.]
C=CCNC1=C2C[C@@H](C)C[C@H](OC)[C@H](O)[C@@H](C)/C=C(\C)[C@H](OC(N)=O)[C@@H](OC)/C=C\C=C(/C)C(=O)NC(=CC1=O)C2=O [17-AAG, 17-N-allylamino-17-demethoxygeldanamycin]	poor solubility	–	–	–	–	–	–	–	–	–
CC(=O)NCC(=O)O.CC(=O)NCC(=O)O.N=C(N)c1ccc(N=NNc2ccc(C(=N)N)cc2)cc1 [DA, diminazene aceturate]	–	190 ± 42.1	1850 ± 104	378 ± 39.3	13.4 ± 3.6	> 40000	did not show any inhibition	> 40000	did not show any inhibition	≤ 28
COC1=C2C[C@@H](C)C[C@H](OC)[C@H](O)[C@@H](C)/C=C(\C)[C@H](OC(N)=O)[C@@H](OC)/C=C\C=C(/C)C(=O)NC(=CC1=O)C2=O [geldanamycin]	poor solubility	–	–	–	–	–	–	–	–	–
